Data as given in ChEMBL document CHEMBL1138133, “6-Acylamino-2-amino-4-methylquinolines as potent melanin-concentrating hormone 1 receptor antagonists: structure-activity exploration of eastern and western parts” (Bioorg Med Chem Lett, 2006).
pIC50: −log10 of the molar value.

How the values were obtained:
[1] = molecular target: T1, Melanin-concentrating hormone receptor 1 (Homo sapiens, UniProt Q99705); experiment: Inhibition of human MCH1 receptor by SPA assay
[2] = molecular target: T1, Melanin-concentrating hormone receptor 1; experiment: […] human MCH1 receptor expressed in CHO cell by IP3 assay; type: cell-based
[3] = molecular target: T1, Melanin-concentrating hormone receptor 1; experiment: Displacement of [125I]MCH from human MCH1 receptor expressed in CHO cell by WC assay; type: cell-based

T1 sequence (Q99705 whole entry): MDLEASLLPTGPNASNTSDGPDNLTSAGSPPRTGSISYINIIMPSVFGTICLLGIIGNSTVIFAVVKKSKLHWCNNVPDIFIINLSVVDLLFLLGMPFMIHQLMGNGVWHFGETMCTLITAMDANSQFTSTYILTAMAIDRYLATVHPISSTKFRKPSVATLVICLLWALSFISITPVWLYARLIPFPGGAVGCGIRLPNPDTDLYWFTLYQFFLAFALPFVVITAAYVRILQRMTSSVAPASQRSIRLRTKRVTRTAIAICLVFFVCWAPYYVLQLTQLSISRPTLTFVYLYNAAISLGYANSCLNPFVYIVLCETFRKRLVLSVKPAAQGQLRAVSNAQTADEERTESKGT

Row | SMILES | pIC50 [1] | pIC50 [2] | pIC50 [3]
1 | Cc1cc(N(C)CCN(C)C)nc2ccc(NC(=O)/C=C/c3ccccc3Cl)cc12 | 5.60 | – | –
2 | Cc1ccc(/C=C/C(=O)Nc2ccc3nc(N(C)CCN(C)C)cc(C)c3c2)cc1 | 7.32 | 6.32 | 7.77
3 | Cc1cc(N(C)CCN(C)C)nc2ccc(NC(=O)c3ccc(-c4ccc(C(F)(F)F)cc4)cc3)cc12 | – | – | 8.00
4 | Cc1cc(N(C)CCN(C)C)nc2ccc(NC(=O)CCc3ccccc3)cc12 | < 5.00 | – | –
5 | Cc1cc(N(C)CCN(C)C)nc2ccc(NC(=O)C3CCC(c4ccc(Cl)cc4)CC3)cc12 (stereo not drawn) | 6.37 | 6.41 | 7.64
6 | Cc1cc(N(C)CCN(C)C)nc2ccc(NC(=O)c3ccc(Oc4ccccc4)cc3)cc12 | 6.68 | – | –
7 | Cc1cc(N(C)CCN(C)C)nc2ccc(NC(=O)CNc3ccc(Cl)cc3Cl)cc12 | 6.90 | – | –
8 | Cc1cc(N(C)CCN(C)C)nc2ccc(NC(=O)/C=C/c3ccccc3)cc12 | 5.16 | – | –
9 | C/C(=C\c1ccccc1)C(=O)Nc1ccc2nc(N(C)CCN(C)C)cc(C)c2c1 | 5.02 | – | –
10 | Cc1cc(N(C)CCN(C)C)nc2ccc(NC(=O)Cc3ccc(-c4ccccc4)cc3)cc12 | 5.48 | – | –
11 | Cc1oc(-c2ccccc2)nc1CC(=O)Nc1ccc2nc(N(C)CCN(C)C)cc(C)c2c1 | 6.25 | – | –
12 | Cc1cc(N(C)CCN(C)C)nc2ccc(NC(=O)NCc3ccc(Br)cc3)cc12 | 6.57 | – | –
13 | Cc1cc(N(C)CCN(C)C)nc2ccc(NC(=O)c3ccc(Oc4ccccc4)nc3)cc12 | 6.98 | – | –
14 | Cc1cc(N(C)CCN(C)C)nc2ccc(NC(=O)c3cc4ccccc4s3)cc12 | 5.68 | – | –
15 | Cc1cc(N(C)CCN(C)C)nc2ccc(NC(=O)CCc3nc(-c4ccccc4)c(-c4ccccc4)o3)cc12 | 6.79 | – | –
16 | Cc1cc(N(C)CCN(C)C)nc2ccc(NC(=O)c3ccc(-c4ccccc4)cc3)cc12 | 7.38 | 7.60 | 8.24
17 | Cc1cc(N(C)CCN(C)C)nc2ccc(NC(=O)C3CC3c3ccccc3)cc12 (racemic) | < 5.00 | – | –

Continued, values first:

Row | pIC50 [1] | pIC50 [2] | pIC50 [3] | SMILES
18 | 7.70 | 6.61 | 8.43 | Cc1cc(N2CCCN(C)CC2)nc2ccc(NC(=O)COc3ccc(OC(F)(F)F)cc3)cc12
19 | 7.06 | – | 7.36 | Cc1cc(N2C[C@@H](C)N[C@@H](C)C2)nc2ccc(NC(=O)COc3ccc(OC(F)(F)F)cc3)cc12
20 | 7.89 | – | 8.43 | Cc1cc(N2CCN[C@@H](C)C2)nc2ccc(NC(=O)COc3ccc(OC(F)(F)F)cc3)cc12
21 | 7.82 | – | 8.49 | CCN(CC)CCNc1cc(C)c2cc(NC(=O)COc3ccc(OC(F)(F)F)cc3)ccc2n1
22 | 7.80 | – | 8.33 | Cc1cc(NCC(C)(C)CN(C)C)nc2ccc(NC(=O)COc3ccc(OC(F)(F)F)cc3)cc12
23 | < 5.00 | – | – | Cc1cc(N(C)CCN(C)C)nc2ccc(NC(=O)COc3ccccc3)cc12
24 | 7.40 | 7.04 | 7.89 | Cc1cc(NC2CCN(Cc3ccccc3)CC2)nc2ccc(NC(=O)COc3ccc(OC(F)(F)F)cc3)cc12
25 | 7.74 | 7.00 | 8.39 | Cc1cc(N2CCN[C@H](C)C2)nc2ccc(NC(=O)COc3ccc(OC(F)(F)F)cc3)cc12
26 | 8.02 | – | 8.89 | Cc1cc(NCCN2CCOCC2)nc2ccc(NC(=O)COc3ccc(OC(F)(F)F)cc3)cc12
27 | 7.40 | – | 7.85 | Cc1cc(N(C)CCN(C)C)nc2ccc(NC(=O)CCc3ccc(OC(F)(F)F)cc3)cc12
28 | 8.30 | – | 8.77 | Cc1cc(N2CCN(CCO)CC2)nc2ccc(NC(=O)COc3ccc(OC(F)(F)F)cc3)cc12
29 | 7.08 | 6.09 | 7.48 | Cc1cc(N(C)CCN(C)C)nc2ccc(NC(=O)COc3ccc(Cl)cc3)cc12
30 | 7.74 | 7.51 | 8.64 | Cc1cc(N(C)CCN(C)C)nc2ccc(NC(=O)COc3ccc(OC(F)(F)F)cc3)cc12
31 | 7.74 | – | 8.28 | Cc1cc(NCCN(C)C)nc2ccc(NC(=O)COc3ccc(OC(F)(F)F)cc3)cc12
32 | 5.56 | – | – | Cc1cc(N(C)CCN(C)C)nc2ccc(NC(=O)c3ccc(OC(F)(F)F)cc3)cc12
33 | – | – | 8.15 | Cc1cc(NCCN(C(C)C)C(C)C)nc2ccc(NC(=O)COc3ccc(OC(F)(F)F)cc3)cc12
34 | 8.28 | 7.48 | 9.04 | Cc1cc(NCCN2CCCCC2)nc2ccc(NC(=O)COc3ccc(OC(F)(F)F)cc3)cc12
35 | – | – | 8.70 | Cc1cc(N2CCCNCC2)nc2ccc(NC(=O)COc3ccc(OC(F)(F)F)cc3)cc12
36 | 7.70 | – | 8.47 | Cc1cc(N2C[C@@H](C)NC[C@@H]2C)nc2ccc(NC(=O)COc3ccc(OC(F)(F)F)cc3)cc12 (racemic)
